Read-outs that look alike come from different tables or passages of the source. Where only a bound is given, the exact number is not on record here.

The subject of data set [1] is AChE. Conditions: vs (±)-huperzine A; cited from earlier work.
The subject of the next data set is mice. Conditions: cited from earlier work.
In the next data set the test system is squirrel monkeys. The following applies: cited from earlier work.
A further data set relates to myasthenia gravis. Conditions: 128 patients; cited from earlier work.
The subject of another data set is animals. The following applies: studies performed in China; cited from earlier work.
For data set [2], the target named is T1, AChE (Rattus norvegicus, UniProt P37136).
T1 construct: from tissue; host or cells: rat hippocampus, crude homogenate (P2 synaptosome-rich fraction)
T1 sequence (P37136 32-614): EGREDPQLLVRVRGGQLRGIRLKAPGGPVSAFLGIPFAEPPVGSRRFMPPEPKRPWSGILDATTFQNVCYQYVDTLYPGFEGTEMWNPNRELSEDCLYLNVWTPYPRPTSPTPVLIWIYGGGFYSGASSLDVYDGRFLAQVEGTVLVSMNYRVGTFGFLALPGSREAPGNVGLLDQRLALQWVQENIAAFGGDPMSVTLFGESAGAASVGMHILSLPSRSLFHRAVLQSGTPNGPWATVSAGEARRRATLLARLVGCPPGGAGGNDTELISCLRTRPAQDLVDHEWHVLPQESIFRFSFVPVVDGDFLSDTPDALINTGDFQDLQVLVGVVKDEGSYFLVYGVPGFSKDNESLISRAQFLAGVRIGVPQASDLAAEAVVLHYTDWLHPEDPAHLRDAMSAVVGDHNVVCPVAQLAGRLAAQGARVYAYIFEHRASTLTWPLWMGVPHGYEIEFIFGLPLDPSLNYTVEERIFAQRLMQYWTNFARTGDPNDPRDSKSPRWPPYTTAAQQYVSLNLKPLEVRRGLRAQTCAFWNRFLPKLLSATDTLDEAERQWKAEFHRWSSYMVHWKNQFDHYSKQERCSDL
The data set is described as follows: biochemical. On the procedure:
*Assayed using rat hippocampal crude homogenates over a concentration
in 10% DMSO made up in the incubation buffer medium. In addition, those
hydrochloric acid and sonicated briefly until they dissolved in the
solution. In each case, the control medium always consisted of the same
ingredients as those which were used to dissolve the compound under
The activity of these new compounds was assayed using AChE isolated from rat brain. […] Rats were killed by decapitation and the brains were extirpated rapidly. […] Homogenates were centrifuged at 1000×g for 10 min to remove cell nuclei and heavy debris. […] A portion of this synaptosome-rich fraction was added in triplicate to ice-cold pH 7.4 Krebs-Ringer medium.
Assay of AChE was carried out according to the method described in C. […] Tissue homogenate was incubated for 30 min at 30° C. in a final volume of […] containing 75 mM sodium phosphate buffer, pH 7.0, and 1.5 mM [^14 C]acetylcholine (1.9 mCi/mmol). […] The tubes were vortexed for 10 sec, then centrifuged for 1 min. The bottom aqueous layer was quickly frozen in a dry ice/acetone bath, and the top organic layer aspirated off. Finally, the buffer was allowed to thaw, and a 25 μl portion was counted for the amount of [^14 C]acetate formed. The amount of residual [^14 C]acetylcholine left in the buffer by the extraction step alone was determined by subtracting from the tissue sample values of [^14 C]acetylcholine measured in a blank sample that contained buffer and substrate, but no tissue.

In data set [3] the test system is AChE. Conditions: as AChE inhibitors for treatment of AD; cited from earlier work.
For data set [4] the following is noted: 0.65 mg/kg i.m.; cited from earlier work.
Another data set concerns Alzheimer's Disease. The following applies: cited from earlier work.
Data set [5] deals with AChE. The following applies: 0.65 mg/kg i.m.; cited from earlier work.

In the case of `C/C=C1\C2C=C(C)CC1(CN)c1ccc(=O)[nH]c1C2` (stereo not shown), in the data set with AChE [1], the “times less potent than (±)-huperzine A as an inhibiter of AChE” value was “about 166 times”.

As for `CC=C1C2C=C(C)CC1(N)c1ccc(=O)[nH]c1C2` (single isomer, unassigned; (-)) [Compound 1a, (-)-Huperzine A], the cognition enhancement result with mice and in the data set with squirrel monkeys was “effective cognition enhancer” in each case. In the data set with myasthenia gravis, the “control of the clinical manifestations of myasthenia gravis (cases)” value is 99%. Besides, in the data set on animals, the memory and learning entry was “improve memory and learning in animals”.

One may read the IC50 as the concentration needed to halve the response being measured. As to `CC=C1C2CCCC1(N)c1ccc(=O)[nH]c1C2` (stereo not shown) [Compound 3, C15 -desmethyl-(C8 -C15)dihydrohuperzine], the IC50 on AChE [2] (AChE isolated from rat brain, read-out: IC50 value (AChE)) turned out to be 1.3e-05 M. The “fold less potent than natural huperzine A” value on AChE [2] (considering the racemic nature of compound 3) is given as “at least fifty-fold”.

Take `CC1=CC2Cc3[nH]c(=O)ccc3C(N)(C1)/C2=C/Cl` (stereo not shown) [Compound 13, 11-DESMETHYL-11-CHLORO-HUPERZINE A]: at AChE [2] (AChE IC50 (M)*, Table I, rat hippocampal crude homogenates, 10^-11 M to 10^-3 M, 10% DMSO in buffer), it took 8.09e-07 M to reach half-maximal inhibition (IC50).

`CC1=C[C@H]2Cc3[nH]c(=O)ccc3[C@]3(C1)NCCC[C@H]23` [huperzine B]: in the data set on AChE [3], the “comparison with THA and physostigmine” value was “appear superior to THA and physostigmine”. The memory and learning entry with animals is “improve memory and learning in animals”.

In the case of `CNC(=O)Oc1ccc2c(c1)[C@]1(C)CCN(C)[C@@H]1N2C` [physostigmine], the side effects entry in data set [4] is reported as “causes considerable side effects”. In addition, in the data set with Alzheimer's Disease, the cognitive improvement result is “modest cognitive improvement”. Besides, the “maximal duration of action (AChE inhibitory action)” value with AChE [5] is reported as at most 60 min.
